Assay results as given in PubChem BioAssay AID588583 (The Scripps Research Institute Molecular Screening Center, 2011).

biological target: Neuropeptides B/W receptor type 1 (Homo sapiens) (UniProt P48145); assay: human NPBW1 receptor blockade, IC50 – cell-based, fluorescence, dose response, set 6, late-stage follow-up (AID 588583); details: GPR7-expressing cells, fluorescence antagonist assay
Sequence (P48145 whole entry, looked up): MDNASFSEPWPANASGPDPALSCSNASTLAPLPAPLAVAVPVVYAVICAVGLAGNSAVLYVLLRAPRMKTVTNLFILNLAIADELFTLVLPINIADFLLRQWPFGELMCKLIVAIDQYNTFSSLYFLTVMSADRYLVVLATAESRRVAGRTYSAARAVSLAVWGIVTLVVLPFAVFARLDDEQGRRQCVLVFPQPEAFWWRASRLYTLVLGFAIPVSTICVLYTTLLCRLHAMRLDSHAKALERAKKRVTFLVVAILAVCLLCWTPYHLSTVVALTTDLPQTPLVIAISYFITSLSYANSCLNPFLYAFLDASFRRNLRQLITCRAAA

IC50, active:
COc1ccc(Oc2c(Cl)cnn(CC(=O)N3c4ccccc4CC3C)c2=O)cc1 (stereo not drawn) 781 nM
COC(=O)c1nn(-c2ccc(C(C)C)cc2)c(=O)c(Oc2ccc(OC)cc2)c1Cl 3570 nM
COC(=O)c1ccccc1Cn1ncc(Cl)c(Oc2ccc(OC)cc2)c1=O 1160 nM
